From US6358934B1, “Anti-retroviral activity of 2′,3′-dideoxy-3′-fluoronucleosides” (Medivir AB, priority 1986, dated 2002)

Experiments:
[1] = target: DNA polymerase of hepatitis B virus (HBV) (Hepatitis B virus genotype D subtype ayw, UniProt P03156); experiment: biochemical; details: 3 hours incubation at 37° C., cpm vs water control
Description: Since hepatitis B virus cannot be grown in cell cultures, a cell-free assay system of the hepatitis B virus DNA polymerase has been used to investigate the effect of 3′-deoxy-3′-fluorothymidine. 3′-Deoxy-3′-fluorothymidine in cells is transformed to 3′-deoxy-3′-fluorothymidine-5′-triphosphate.
The HBV associated DNA polymerase activity can be measured in vitro (Kaplan et al., J. Virol., 12, 995-1005, 1973). A slight modification of this method has been used to test the substance for inhibition of this DNA polymerase activity. (Nordenfelt E., Öberg, B., Helgstrand E. and Miller E. Acta path., Microbiol. Scand. Sect B, 88:169-175, 1980). With this assay the 3′-deoxy-3′-fluorothymidine-5′-triphosphate has been tested, instead of the prodrug 3′-deoxy-3′-fluorothymidine, to evaluate its potential against hepatitis B virus DNA polymerase.
3′-deoxy-3′-fluorothymidine-5′-triphosphate was added to the final concentrations of 0.01 μM, 0.05 μM, 0.1 μM, 0.5 μM and 1.0 μM in the reaction mixture. The inhibition is calculated after 3 hours incubation at 37° C. and based on cpm compared to control with added water.

[2] = target: T1, reverse transcriptase of HIV (HTLV-III/LAV) (Human immunodeficiency virus type 1 group M subtype B, UniProt P03366); experiment: Cell-free assay of HIV reverse transcriptase; assay type: biochemical
T1 construct: reverse transcriptase from HIV (HTLV-III/LAV)
Experimental: A cell-free assay system has been used to investigate the inhibition of 3′-deoxy-3′-fluorothymidine on reverse transcriptase of HIV (HTLV-III/LAV). The assay was performed as described by Vrang et Öberg, Antimicrob. Agents Chemother. 29, 867-872 (1986). With this assay the 3′-deoxy-3′-fluoro-thymidine-5′-triphosphate has been tested, instead of the prodrug 3′-deoxy-3′-fluorothymidine to evaluate its potential against reverse transcriptase from HIV (HTLV-III/LAV).

[3] = tested on: HIV (HTLV-III/LAV) in H9 cells; experiment: Expressed reverse transcriptase activity in HIV-infected H9 cell cultures; assay type: cell-based
Experimental: The cells were then pelleted and dispersed in 2.5 ml phosphate buffered saline (PBS) including 2 μg/ml Polybrene. After incubation for 30 min the cells were pelleted and infected with HIV. After an adsorption period of 1 hour the cells were pelleted and washed once with 2.5 ml PBS. […] Samples for reverse transcriptase activity tests were taken as indicated.
1.3 ml samples from the supernatant of each culture were centrifuged at 18 000 rpm in a 55-34 rotor for 1.5 hours and the virus pellet resuspended in 100 μl buffer containing 50 mM Tris-HCl, pH 7.5; 35 mM KCl; 4 mM DTT; 1 mM EDTA; 1.3% Triton X-100. 50 μl samples were taken to the reverse transcriptase activity tests and analyzed in a 100 μl reaction mixture containing 75 mM Tris-HCl, pH 8.0; 60 mM KCl; 6.2 mM MgCl2; 6 mM DTT; 0.5 mM EDTA; 0.65% Triton X-100, 100 μg/ml BSA; 25 μCi/ml ^3H-dTTP (spec activity 80 Ci/mmol); 2.5 μg/ml (dT)12-18; and 2.0 μg/ml (rA)n. Incubation was for 1 hour at 37° C. and the TCA-insoluble product precipitated onto Whatman GF/A filter papers, washed and dried, and counted in a liquid scintillation counter.
The amounts of reverse transcriptase molecules and their total activity expressed in HIV-infected cell cultures is correlated to the amount of HIV particles present. The addition of an effective antiviral agent which inhibits the production of new HIV particles, also decreases the amount of reverse transcriptase molecules and is expressed as a decreased total activity.

Sequence of DNA polymerase of hepatitis B virus (HBV) (P03156 whole entry): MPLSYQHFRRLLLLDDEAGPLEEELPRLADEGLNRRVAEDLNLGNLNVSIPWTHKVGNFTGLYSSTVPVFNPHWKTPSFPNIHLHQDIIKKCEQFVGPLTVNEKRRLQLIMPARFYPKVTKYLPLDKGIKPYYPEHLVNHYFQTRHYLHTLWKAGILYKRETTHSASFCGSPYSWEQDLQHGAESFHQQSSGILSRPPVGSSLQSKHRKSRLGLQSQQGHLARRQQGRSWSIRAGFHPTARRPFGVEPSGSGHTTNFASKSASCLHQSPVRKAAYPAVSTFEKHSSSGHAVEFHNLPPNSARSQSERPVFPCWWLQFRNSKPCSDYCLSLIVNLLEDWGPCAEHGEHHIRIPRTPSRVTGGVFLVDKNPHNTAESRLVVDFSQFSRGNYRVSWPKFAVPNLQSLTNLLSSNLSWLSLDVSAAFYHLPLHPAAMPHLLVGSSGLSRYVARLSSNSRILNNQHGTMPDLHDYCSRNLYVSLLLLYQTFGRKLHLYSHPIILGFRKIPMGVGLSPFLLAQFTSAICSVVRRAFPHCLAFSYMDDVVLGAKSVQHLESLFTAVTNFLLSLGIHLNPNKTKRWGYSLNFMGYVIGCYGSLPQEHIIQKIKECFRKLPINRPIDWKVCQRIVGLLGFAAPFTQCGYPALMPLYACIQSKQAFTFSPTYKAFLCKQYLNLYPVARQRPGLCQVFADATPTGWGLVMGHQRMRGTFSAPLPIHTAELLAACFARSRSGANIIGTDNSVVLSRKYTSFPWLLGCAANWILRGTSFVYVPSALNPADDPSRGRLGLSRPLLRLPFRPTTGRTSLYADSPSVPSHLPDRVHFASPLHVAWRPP

## Cc1cn([C@H]2C[C@H](F)[C@@H](COP(=O)(O)OP(=O)(O)OP(=O)(O)O)O2)c(=O)[nH]c1=O [3′-deoxy-3′-fluorothymidine-5′-triphosphate]
[1]; 0.01 μM
  inhibition at 0.01 µM: 17%
[1]; 0.05 μM
  inhibition at 0.05 µM: 17%
[1]; 0.1 μM
  inhibition at 0.1 µM: 39%
[1]; 0.5 μM
  inhibition at 0.5 µM: 79%
[2]; 0.01 μM
  % inhibition of HIV (HTLV-III/LAV) reverse transcriptase: 12%
[2]; 0.05 μM
  % inhibition of HIV (HTLV-III/LAV) reverse transcriptase: 27%
[2]; 0.1 μM
  % inhibition of HIV (HTLV-III/LAV) reverse transcriptase: 38%

## Cc1cn([C@H]2C[C@H](F)[C@@H](CO)O2)c(=O)[nH]c1=O [3′-deoxy-3′-fluorothymidine]
[3]; 0.01 μM, 4 days post-infection, 0 μM control 0.9
  Reverse transcriptase activity: 0.5 cpm × 10^−3
[3]; 0.01 μM, 8 days post-infection, 0 μM control 19
  Reverse transcriptase activity: 1.3 cpm × 10^−3
[3]; 0.01 μM, 11 days post-infection, 0 μM control 17
  Reverse transcriptase activity: 1.9 cpm × 10^−3
[3]; 0.01 μM, 15 days post-infection, 0 μM control 11
  Reverse transcriptase activity: 2.7 cpm × 10^−3
[3]; 0.01 μM, 18 days post-infection, 0 μM control 27
  Reverse transcriptase activity: 28 cpm × 10^−3
[3]; 0.01 μM, 22 days post-infection, 0 μM control 46
  Reverse transcriptase activity: 52 cpm × 10^−3
[3]; 0.01 μM, 29 days post-infection, 0 μM control 16
  Reverse transcriptase activity: 21 cpm × 10^−3
[3]; 0.01 μM, up to 11 days
  effect on reverse transcriptase activity of HIV in infected H9 cells (in words): enzyme activity was not detected
[3]; 0.05 μM, 4 days post-infection, 0 μM control 0.9
  Reverse transcriptase activity: 0.3 cpm × 10^−3
[3]; 0.05 μM, 8 days post-infection, 0 μM control 19
  Reverse transcriptase activity: 0.3 cpm × 10^−3
[3]; 0.05 μM, 11 days post-infection, 0 μM control 17
  Reverse transcriptase activity: 0.4 cpm × 10^−3
[3]; 0.05 μM, 15 days post-infection, 0 μM control 11
  Reverse transcriptase activity: 0.6 cpm × 10^−3
[3]; 0.05 μM, 18 days post-infection, 0 μM control 27
  Reverse transcriptase activity: 0.5 cpm × 10^−3
[3]; 0.05 μM, 22 days post-infection, 0 μM control 46
  Reverse transcriptase activity: 1.6 cpm × 10^−3
[3]; 0.05 μM, 29 days post-infection, 0 μM control 16
  Reverse transcriptase activity: 3.1 cpm × 10^−3
[3]; 0.05 μM, up to 22 days
  effect on reverse transcriptase activity of HIV in infected H9 cells (in words): no significant enzyme activity was detected
[3]; 0.1 μM and higher concentrations, during at least 29 days
  effect on reverse transcriptase activity of HIV in infected H9 cells (in words): completely prevents the enzyme activity
[3]; 0.1 μM, 4 days post-infection, 0 μM control 0.9
  Reverse transcriptase activity: 0.2 cpm × 10^−3
[3]; 0.1 μM, 8 days post-infection, 0 μM control 19
  Reverse transcriptase activity: 0.2 cpm × 10^−3
[3]; 0.1 μM, 11 days post-infection, 0 μM control 17
  Reverse transcriptase activity: 0.5 cpm × 10^−3
[3]; 0.1 μM, 15 days post-infection, 0 μM control 11
  Reverse transcriptase activity: 0.4 cpm × 10^−3
[3]; 0.1 μM, 18 days post-infection, 0 μM control 27
  Reverse transcriptase activity: 0.4 cpm × 10^−3
[3]; 0.1 μM, 22 days post-infection, 0 μM control 46
  Reverse transcriptase activity: 0.2 cpm × 10^−3
[3]; 0.1 μM, 29 days post-infection, 0 μM control 16
  Reverse transcriptase activity: 0.2 cpm × 10^−3
[3]; 0.5 μM, 4 days post-infection, 0 μM control 0.9
  Reverse transcriptase activity: 0.3 cpm × 10^−3
[3]; 0.5 μM, 8 days post-infection, 0 μM control 19
  Reverse transcriptase activity: 0.3 cpm × 10^−3
[3]; 0.5 μM, 11 days post-infection, 0 μM control 17
  Reverse transcriptase activity: 0.5 cpm × 10^−3
[3]; 0.5 μM, 15 days post-infection, 0 μM control 11
  Reverse transcriptase activity: 0.3 cpm × 10^−3
[3]; 0.5 μM, 18 days post-infection, 0 μM control 27
  Reverse transcriptase activity: 0.6 cpm × 10^−3
[3]; 0.5 μM, 22 days post-infection, 0 μM control 46
  Reverse transcriptase activity: 0.1 cpm × 10^−3
[3]; 0.5 μM, 29 days post-infection, 0 μM control 16
  Reverse transcriptase activity: 0.2 cpm × 10^−3
[3]; 1.0 μM, 4 days post-infection, 0 μM control 0.9
  Reverse transcriptase activity: 0.3 cpm × 10^−3
[3]; 1.0 μM, 8 days post-infection, 0 μM control 19
  Reverse transcriptase activity: 0.2 cpm × 10^−3
[3]; 1.0 μM, 11 days post-infection, 0 μM control 17
  Reverse transcriptase activity: 0.5 cpm × 10^−3
[3]; 1.0 μM, 15 days post-infection, 0 μM control 11
  Reverse transcriptase activity: 0.4 cpm × 10^−3
[3]; 1.0 μM, 18 days post-infection, 0 μM control 27
  Reverse transcriptase activity: 0.5 cpm × 10^−3
[3]; 1.0 μM, 22 days post-infection, 0 μM control 46
  Reverse transcriptase activity: 0.1 cpm × 10^−3
[3]; 1.0 μM, 29 days post-infection, 0 μM control 16
  Reverse transcriptase activity: 0.2 cpm × 10^−3
